Test results: the supplement of paper PMC11451515

Experiments:
Conditions in all cases: 48 h
SEM cells [1] = assay: cell viability relative to DMSO control; higher = less cytotoxic
In short: (§1)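 Library compounds in DMSO were pin-dosed into 1536-well plates (5 μl) holding NOMO1 or SEM (500 cells/well) or P12-Ichikawa (1000 cells/well) leukemia cells, across an 11-point threefold series of 47 μM to 0.79 nM. Each cell line had been adapted for at least four passages in each medium. CellTiter-Glo One luminescence was read after 48 h at 37°C. Viability is the per-plate percentage relative to DMSO wells, with cell-free wells as background.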

P12-Ichikawa [2] = assay: as above
In short: as §1

NOMO1 [3] = assay: as above
In short: as §1

SEM cells [4] = assay: AUC of viability dose-response curve (% viability x log10 dose units); higher = less sensitive
In short: (§2)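 Leukemia cells adapted to each medium (500 or 1000 cells/well, 1536-well plates) were exposed to library compounds in DMSO for 48 h at 37°C at 11 threefold doses, 47 μM to 0.79 nM. Luminescence by CellTiter-Glo One was normalised per plate to DMSO and cell-free wells, then fitted with a four-parameter log-logistic curve on log10 dose. Curves above full viability were scaled and quality-control failures removed before area under the curve was integrated by trapezoidal rule.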

P12-Ichikawa [5] = assay: as above
In short: as §2

NOMO1 [6] = assay: as above
In short: as §2

O=C1CCCC(=O)C1C(=O)c1ccc(C(F)(F)F)cc1[N+](=O)[O-]
cell viability [%]
Conditions | NOMO1 [3] | P12-Ichikawa [2] | SEM cells [1]
HPLM + 10% dialyzed FBS, 0.000781 µM | 138 | 106 | 112
HPLM + 10% dialyzed FBS, 0.00234 µM | 110 | 106 | 115
HPLM + 10% dialyzed FBS, 0.00702 µM | 105 | 108 | 100
HPLM + 10% dialyzed FBS, 0.0211 µM | 107 | 118 | 107
HPLM + 10% dialyzed FBS, 0.0632 µM | 103 | 112 | 108
HPLM + 10% dialyzed FBS, 0.19 µM | 106 | 113 | 108
HPLM + 10% dialyzed FBS, 0.569 µM | 111 | 106 | 114
HPLM + 10% dialyzed FBS, 1.71 µM | 118 | 105 | 102
HPLM + 10% dialyzed FBS, 5.12 µM | 113 | 110 | 106
HPLM + 10% dialyzed FBS, 15.4 µM | 93.6 | 98.3 | 113
HPLM + 10% dialyzed FBS, 46.1 µM | 54.3 | 100 | 108
RPMI 5 mM glucose + 10% FBS, 0.000781 µM | 102 | 123 | 109
RPMI 5 mM glucose + 10% FBS, 0.00234 µM | 105 | 116 | 103
RPMI 5 mM glucose + 10% FBS, 0.00702 µM | 99.2 | 114 | 112
RPMI 5 mM glucose + 10% FBS, 0.0211 µM | 99.9 | 123 | 98.4
RPMI 5 mM glucose + 10% FBS, 0.0632 µM | 104 | 113 | 109
RPMI 5 mM glucose + 10% FBS, 0.19 µM | 98.4 | 109 | 97.5
RPMI 5 mM glucose + 10% FBS, 0.569 µM | 103 | 119 | 112
RPMI 5 mM glucose + 10% FBS, 1.71 µM | 99.4 | 110 | 101
RPMI 5 mM glucose + 10% FBS, 5.12 µM | 98.4 | 111 | 108
RPMI 5 mM glucose + 10% FBS, 15.4 µM | 99.4 | 109 | 85.9
RPMI 5 mM glucose + 10% FBS, 46.1 µM | 92.8 | 105 | 86
RPMI 5 mM glucose + 10% dialyzed FBS, 0.000781 µM | 103 | 113 | 105
RPMI 5 mM glucose + 10% dialyzed FBS, 0.00234 µM | 108 | 113 | 104
RPMI 5 mM glucose + 10% dialyzed FBS, 0.00702 µM | 105 | 107 | 110
RPMI 5 mM glucose + 10% dialyzed FBS, 0.0211 µM | 90.1 | 110 | 110
RPMI 5 mM glucose + 10% dialyzed FBS, 0.0632 µM | 92 | 115 | 127
RPMI 5 mM glucose + 10% dialyzed FBS, 0.19 µM | 111 | 110 | 106
RPMI 5 mM glucose + 10% dialyzed FBS, 0.569 µM | 105 | 108 | 111
RPMI 5 mM glucose + 10% dialyzed FBS, 1.71 µM | 113 | 110 | 129
RPMI 5 mM glucose + 10% dialyzed FBS, 5.12 µM | 96.7 | 108 | 113
RPMI 5 mM glucose + 10% dialyzed FBS, 15.4 µM | 95.3 | 104 | 115
RPMI 5 mM glucose + 10% dialyzed FBS, 46.1 µM | 92.6 | 99.5 | 102

AUC of viability dose-response curve
Conditions | NOMO1 [6] | P12-Ichikawa [5] | SEM cells [4]
HPLM + 10% dialyzed FBS | 403 | 465 | 474
RPMI 5 mM glucose + 10% FBS | 471 | 450 | 464
RPMI 5 mM glucose + 10% dialyzed FBS | 463 | 468 | 466
